Test: in vitro
Details: human, hela cells, % viability

Structure (SMILES) | viability at 28.5 h, 10 µM
Cc1cc(/C=C2\SC(=O)N(CC(=O)Nc3ccccc3F)C2=O)c(C)n1-c1cccnc1 [CBK264770] | 95.5%
CN1CCN(c2ccc(C(=O)O)cc2)CC1 [CBK264773] | 94.8%
Cc1ccc(-c2ccc(CCC(=O)O)n2NC(=O)c2ccc([N+](=O)[O-])cc2)cc1 [CBK264776] | 109%
O=C(Nc1ccc(S(=O)(=O)Nc2ccc(Cl)c(C(F)(F)F)c2)cc1)c1ccc(CN2CCOCC2)cc1 [CBK264777] | 104%
Cc1ccc(OCC(O)CNC(=O)c2ccccc2C(=O)O)cc1 (stereo not drawn) [CBK264778] | 116%
Cc1ccc(C)c(NS(=O)(=O)c2ccc(NC(=O)c3ccc(CN4CCOCC4)cc3)cc2)c1 [CBK264780] | 104%
O=C(O)CCc1ccc(-c2ccc(Cl)cc2)[nH]1 [CBK264781] | 100%
CC(C)(C)c1ccc(OCCCC(=O)Nc2ccc(N3CCOCC3)cc2)cc1 [CBK264783] | 88.8%
O=C1CC(c2ccc(F)cc2)CC(=O)C1=CNCCN1CCN(C(=S)Nc2ccccc2)CC1 (stereo not drawn) [CBK264784] | 94.1%
O=C1CC(c2cccs2)CC(=O)C1=CNCCN1CCNCC1 (stereo not drawn) [CBK264785] | 105%
O=C(O)CN1C(=O)/C(=C/C2=Cc3ccccc3OC2)SC1=S [CBK264787] | 103%
O=C(Nc1ccc(S(=O)(=O)N2CCOCC2)cc1)c1cc(-c2ccccc2)nc2ccccc12 [CBK264790] | 103%
CN1CCN(c2cc(N3CCN(S(=O)(=O)c4ccc5ccccc5c4)CC3)ccc2[N+](=O)[O-])CC1 [CBK264791] | 97.6%
O=C(CCN1C(=O)/C(=C\C=C\c2ccccc2)SC1=S)Nc1cc(Cl)ccc1O [CBK264792] | 96.2%
Cc1cccn2c(=O)c(/C=C3\SC(=S)N(CCCC(=O)O)C3=O)c(N3CCC(C)CC3)nc12 [CBK264793] | 107%
Cc1ccc(S(=O)(=O)N2CCN(c3ccc([N+](=O)[O-])c(N4CCN(C)CC4)c3)CC2)cc1 [CBK264795] | 118%
O=C(O)CCc1ccc(-c2cccs2)n1-c1ccc(Cl)c(Cl)c1 [CBK264797] | 88.7%
O=C(CCN1C(=O)/C(=C\C=C\c2ccccc2)SC1=S)Nc1cccc(C(=O)O)c1 [CBK264798] | 109%
O=[N+]([O-])c1ccccc1OCCCn1c2ccccc2c2ccccc21 [CBK264799] | 92.1%
Cc1ccccc1Nc1nc(-c2ccc([N+](=O)[O-])cc2)nc2ccccc12 [CBK264803] | 119%
Cc1cccc(C(=O)Oc2ccc(C(c3c(C)n[nH]c3O)c3c(C)n[nH]c3O)cc2)c1 [CBK264804] | 102%

Structure (SMILES) | viability at 28.5 h, 10 µM
CC(Sc1ccc(Cl)cc1)C(=O)Nc1ccc(S(=O)(=O)Nc2ccc(Cl)cc2)cc1 (stereo not drawn) [CBK264805] | 97.9%
O=C(O)CCC(=O)CCC(=O)c1cccs1 [CBK264807] | 94.2%
O=C(O)CN1C(=O)/C(=C\c2ccc(Oc3ccc(C(F)(F)F)cc3[N+](=O)[O-])cc2)SC1=S [CBK264809] | 97.9%
COc1ccccc1N(CC(=O)Nc1c(C)cccc1C)S(=O)(=O)c1ccc(C)cc1 [CBK264810] | 96.5%
Cc1cc(C)n(CC(O)CN2C(=O)NC(C)(C)C2=O)n1 (stereo not drawn) [CBK264811] | 107%
COc1ccc(C2=C(CC(=O)O)C(=O)CC2)cc1 [CBK264812] | 89.2%
Cc1cccc(N(CC(=O)Nc2ccc3c(c2)oc2ccccc23)S(=O)(=O)c2ccccc2)c1 [CBK264813] | 101%
COc1ccc(N(CC(=O)Nc2ccc3c(c2)oc2ccccc23)S(=O)(=O)c2ccccc2)cc1 [CBK264814] | 104%
Cc1[nH]nc(O)c1C(c1ccc(OC(=O)c2ccc(F)cc2)cc1)c1c(O)n[nH]c1C [CBK264816] | 96.8%
CCC(=O)N1CCN(CCNC=C2C(=O)CC(c3cccs3)CC2=O)CC1 (stereo not drawn) [CBK264817] | 97%
O=C(CCN1C(=O)/C(=C\C=C\c2ccccc2)SC1=S)Nc1ccc(C(=O)O)cc1 [CBK264818] | 104%
O=C(COC(=O)c1ccc(Cl)c(Cl)c1)c1ccc(Oc2ccc([N+](=O)[O-])cc2)cc1 [CBK264821] | 117%
CCOC(=O)c1sc(Nc2nc(C)cc(OC)n2)nc1C [CBK264822] | 108%
CC1(C)NC(=O)N(CC(O)CNC23CC4CC(CC(C4)C2)C3)C1=O (stereo not drawn) [CBK264823] | 95.5%
O=C(CCC(=O)c1ccc2c(c1)OCCO2)OCC(=O)c1ccc(Cl)c(Cl)c1 [CBK264825] | 87.5%
Cc1cc(Cl)c(OCCn2c3ccccc3c3ccccc32)c(Br)c1 [CBK264826] | 92.2%
Nc1nnc(SCc2cccc3ccccc23)[nH]1 [CBK264830] | 103%
N=C1NC(=O)/C(=C\c2cccc(C(=O)O)c2)S1 [CBK264832] | 97.6%
CCc1cc2c(=O)c(-c3nc(C)cs3)c(CCCC(=O)O)oc2cc1O [CBK264834] | 101%
Cc1ccc(/C=C/C(=O)O)cc1S(=O)(=O)N(CCO)CCO [CBK264840] | 99%
Cc1cc(/C=C2\NC(=O)NC2=O)c(C)n1-c1ccc(OCc2ccccc2F)cc1 [CBK264842] | 88.3%

Structure (SMILES) | viability at 28.5 h, 10 µM
Cn1c(SCC(=O)c2ccc([N+](=O)[O-])cc2)nnc1-c1ccc(N)cc1 [CBK264843] | 97.9%
CN1CCN(CC(=O)Nc2ccc(OCc3ccccc3)cc2)CC1 [CBK264844] | 103%
COc1ccc(NC2=CC(=O)CC(c3ccc(C)cc3)C2)c(OC)c1 (stereo not drawn) [CBK264845] | 111%
COc1ccccc1OCCOc1c(Cl)cc(/C=C2\SC(=S)NC2=O)cc1Cl [CBK264848] | 93.9%
O=C1/C(=C/c2cn(Cc3cccc4ccccc34)c3ccccc23)C(O)=NN1c1ccccc1 [CBK264849] | 94.7%
Oc1nc(CSc2nnc(-c3ccncc3)n2-c2ccccc2)nc2ccccc12 [CBK264851] | 97.5%
CNC(=S)NCCc1c[nH]c2ccccc12 [CBK264853] | 108%
COc1ccc2nc(Nc3nc(=O)cc(CSc4nc5ccccc5s4)[nH]3)nc(C)c2c1 [CBK264854] | 110%
COc1cccc(C2C(C(=O)c3ccc(Br)cc3)=C(O)C(=O)N2CCN2CCOCC2)c1OC (stereo not drawn) [CBK264855] | 110%
Cc1cc(=O)nc(N/C(N)=N/c2cccc([N+](=O)[O-])c2)[nH]1 [CBK264857] | 102%
COc1ccc(C(=O)C2=C(O)C(=O)N(CCN3CCOCC3)C2c2ccc(O)c(OC)c2)c(C)c1 (stereo not drawn) [CBK264858] | 88%
O=C(Oc1ccc(F)cc1C(=O)/C=C/c1ccccc1F)c1cccc([N+](=O)[O-])c1 [CBK264859] | 86.9%
O=C(CC1Sc2ccc(Cl)cc2NC1=O)Nc1ccc([N+](=O)[O-])cc1 (stereo not drawn) [CBK264860] | 98%
COCCCN1C(=O)C(O)=C(C(=O)c2ccc(C)o2)C1c1ccc(OC)cc1 (stereo not drawn) [CBK264863] | 103%
COc1cccc(C2C(C(=O)c3ccc(Cl)cc3)=C(O)C(=O)N2CCCN2CCOCC2)c1 (stereo not drawn) [CBK264865] | 105%
O=C(O)CCC(=O)Nc1ccc(S(=O)(=O)Nc2ccc(I)cc2)cc1 [CBK264866] | 99.9%
O=C(Nc1ccc(S(=O)(=O)Nc2ncccn2)cc1)c1ccc(N2C(=O)c3ccccc3C2=O)cc1 [CBK264868] | 94%
COc1ccc(C(=O)C2=C(O)C(=O)N(CCCN(C)C)C2c2ccncc2)cc1C (stereo not drawn) [CBK264871] | 102%
COc1cccc(C(=O)COC(=O)c2ccc3c(c2)C(=O)N(c2ccc(C(C)=O)cc2)C3=O)c1 [CBK264872] | 84%
COC(=O)CNC(=O)c1ccc(S(=O)(=O)N2CCOCC2)cc1 [CBK264873] | 109%
COc1ccc(C(=O)C2=C(O)C(=O)N(CCN(C)C)C2c2cccc([N+](=O)[O-])c2)cc1C (stereo not drawn) [CBK264875] | 85.2%

Structure (SMILES) | viability at 28.5 h, 10 µM
Cc1cccc(C)c1NC(=O)CN(c1ccc(F)cc1)S(=O)(=O)c1ccc2c(c1)OCCO2 [CBK264878] | 104%
Cc1ccc(C)c(NC(=S)NCCc2ccc(S(N)(=O)=O)cc2)c1 [CBK264879] | 100%
COC(=O)CNC(=O)c1ccc(S(=O)(=O)N2CCCC2)cc1 [CBK264880] | 88.4%
O=C1c2cccc3cccc(c23)C(=O)N1CCN1CCN(CC(O)COc2ccc(Cl)cc2Cl)CC1 (stereo not drawn) [CBK264881] | 94.5%
Cc1ccc(-c2nnc3s/c(=C\c4ccc([N+](=O)[O-])cc4)c(=O)n23)cc1 [CBK264882] | 101%
CC1CCc2sc3ncnc(N4CCN(CCOC(c5ccccc5)c5ccccc5)CC4)c3c2C1 (stereo not drawn) [CBK264884] | 86.6%
O=C(OCn1nnc2ccccc2c1=O)c1cccc([N+](=O)[O-])c1 [CBK264887] | 104%
Cc1cccc(NC(=S)NCCc2ccc(S(N)(=O)=O)cc2)c1C [CBK264889] | 86.5%
Cc1cc(C)cc(NS(=O)(=O)c2ccc(NC(=O)C(C)Oc3ccc(Cl)cc3Cl)cc2)c1 (stereo not drawn) [CBK264894] | 108%
COc1ccc(C(=O)C2=C(O)C(=O)N(CCCN(C)C)C2c2ccc(Cl)c(Cl)c2)c(C)c1 (stereo not drawn) [CBK264896] | 98.8%
Cc1ccc(C(=O)C(NC(=O)c2cccs2)Nc2ccc(S(N)(=O)=O)cc2)cc1 (stereo not drawn) [CBK264897] | 89%
Cc1c(Cl)cccc1NC(=S)N1CCC(C(N)=O)(N2CCCCC2)CC1 [CBK264900] | 112%
NS(=O)(=O)c1ccc(NS(=O)(=O)c2ccc(NC(=O)Nc3ccc(Cl)cc3)cc2)cc1 [CBK264902] | 90.9%
Cc1cccn2c(=O)c(/C=C3\SC(=S)NC3=O)c(NCCCN3CCOCC3)nc12 [CBK264904] | 104%
COc1ccc(C(=O)C2=C(O)C(=O)N(Cc3cccnc3)C2c2cccc(OC)c2OC)cc1C (stereo not drawn) [CBK264906] | 92.8%
CC(C)c1ccc2oc(-c3ccc(NC(=S)NC(=O)c4cncc(Br)c4)cc3)nc2c1 [CBK264913] | 106%
O=c1oc2cc(Oc3ccc([N+](=O)[O-])cc3C(F)(F)F)c(Cl)cc2c2c1CCCC2 [CBK264914] | 93.7%
O=c1[nH]c2ccccc2n1CCCSc1nnc2c(n1)[nH]c1ccccc12 [CBK264917] | 118%

Reference: PMC12040169 (PLOS Biology, 2025)
